For two compounds, solubilité results are on record in patent EP0003269A1, “Pentacyclic derivatives, process for their preparation and pharmaceutical compositions containing them” (SCIENCE UNION ET Cie SOCIETE FRANCAISE DE RECHERCHE MEDICALE, priority 1977, dated 1979).

The nature of this data set: solubility in solvents. Format: physicochemical.

For the compound `C[C@@H]1OC=C(C(=O)NN)[C@H]2C[C@H]3c4[nH]c5ccccc5c4CCN3C[C@H]12` [hydrazide de l'acide Raubasinique, Hydrazide de l'acide Raubasinique], the solubilité result reads like this: (in a mixture pyridine-eau) “soluble”; (in méthanol) “très soluble”; (in n- butanol) “très soluble”; (in the other solvents) “peu soluble”.

For the compound “hydrazide de l'acide 10-methoxy raubasinique”, for the setting “dichlorhydrate, in organic solvents”, the solubilité entry was “très soluble”.
